# PubChem BioAssay (NCI)
#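 All cell lines were grown in 96-well plates and treated with compound for 48 hours. Abbreviation: GI50, concentration required for 50% inhibition of growth. TGI: total growth inhibition.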
# Assays:
# Test in all cases: NCI-60 cell line screen, 48 h
# [1] = tested on: T-47D breast
# [2] = tested on: ACHN renal
# [3] = tested on: MDA-N
# [4] = tested on: CAKI-1 renal
# [5] = tested on: KM12 colon
# [6] = tested on: HCT-15 colon
# [7] = tested on: SN12C renal
# [8] = tested on: SR leukemia
# [9] = tested on: HCC-2998 colon
# [10] = tested on: MOLT-4 leukemia
SMILES,TGI [1],TGI [2],TGI [3],TGI [4],TGI [5],TGI [6],TGI [7],TGI [8],TGI [9],TGI [10],GI50 [7]
NC(Cc1cc(I)c(Oc2ccc(O)c(I)c2)c(I)c1)C(=O)O (stereo not drawn),> 100 µM,> 100 µM,> 100 µM,> 100 µM,> 100 µM,> 100 µM,> 100 µM,–,–,–,–
CCOC(OCC)(OCC)C(Br)CC (stereo not drawn),–,> 100 µM,–,> 100 µM,> 100 µM,–,> 100 µM,49 µM,> 100 µM,> 100 µM,–
O=[N+]([O-])c1ccc2c3c1[C@@H]1O[C@@H]1c1cccc(c1-3)[C@@H]1O[C@H]21,12 µM,–,10.5 µM,3.2 µM,10.1 µM,6.05 µM,15.7 µM,> 100 µM,–,> 100 µM,3.36 µM
O=C(O)c1ccccc1/C=C1\Cc2cc3c(cc2C1=O)CCC3,45.6 µM,> 100 µM,38.9 µM,–,> 100 µM,74.8 µM,56.8 µM,28.1 µM,68.3 µM,46.5 µM,–
Clc1ccc(C(OCn2ccnc2)c2nc3ccccc3[nH]2)c(Cl)c1 (stereo not drawn),> 100 µM,> 100 µM,> 100 µM,> 100 µM,> 100 µM,> 100 µM,> 100 µM,–,> 100 µM,> 100 µM,–
CN(/N=C/c1ccccn1)C1=NCCN1,> 100 µM,> 100 µM,> 100 µM,> 100 µM,> 100 µM,> 100 µM,–,> 100 µM,> 100 µM,> 100 µM,–
CCOC(=O)c1nc2ccc(C(F)(F)F)cc2nc1Oc1ccc(OC)cc1,> 100 µM,> 100 µM,> 100 µM,> 100 µM,> 100 µM,> 100 µM,> 100 µM,–,–,> 100 µM,–
CC(=O)n1c2ccc(Br)cc2c2nc3ccccc3nc21,–,> 100 µM,> 100 µM,> 100 µM,> 100 µM,> 100 µM,> 100 µM,> 100 µM,> 100 µM,> 100 µM,–
COc1cc(Nc2cc(Cl)cc(Cl)c2)nc(N)n1,92.5 µM,37.4 µM,62.3 µM,42.8 µM,37 µM,36.5 µM,40.1 µM,–,34 µM,51 µM,–
COc1cc(CCN)c(OC)c(OC)c1,> 100 µM,> 100 µM,> 100 µM,> 100 µM,> 100 µM,> 100 µM,> 100 µM,> 100 µM,–,> 100 µM,–
COC(=O)/C(=N\N)C(C(=O)C(=O)Nc1cc(Cl)ccc1Cl)c1nc2ccc([N+](=O)[O-])cc2[nH]c1=O (stereo not drawn),> 100 µM,> 100 µM,> 100 µM,> 100 µM,> 100 µM,> 100 µM,> 100 µM,–,> 100 µM,> 100 µM,–
Cc1cccc(C)c1NC(=O)C(=O)CC(=O)c1sc(Nc2c(C)cccc2C)nc1C,> 100 µM,> 100 µM,> 100 µM,> 100 µM,> 100 µM,> 100 µM,> 100 µM,–,> 100 µM,> 100 µM,–
